Here are results for four molecules from publication PMC5729109 (Journal of the American Chemical Society, 2017).

Where “and” joins values, the source holds several entries; their conditions need not be identical. Equal values may be shown once. Marks after values point to notes of the source that are not given here. *1 amine or outer side, *2 acyl side, *3 side chain or, on linkers, in order; H or OH if unused. Where a SMILES comes first, the peptide text is derived from it. Bridges are numbered along the chain shown (N, C = ends). [ ]: non-standard residue; d: D form. Adda = CO[C@@H](Cc1ccccc1)[C@@H](C)/C=C(C)/C=C/[C@H](N[*:1])[C@H](C)C(=O)[*:2]; dAsp(3S-Me) = C[C@H](C(=O)[*:3])[C@@H](N[*:1])C(=O)[*:2]; d(γGlu) = O=C(O)[C@@H](CCC(=O)[*:2])N[*:1]; NMeDha = C=C(NC)C(=O)O Bounds are passed on as bounds.

Assay [1] addresses PP1 Cys127Ser mutant (C127SPP1) (Homo sapiens, UniProt P62136, C127S). It is filed as biochemical.
A further assay relates to PP1, PP2A, PP4 and PP5. The note with it: cited from earlier work.
The target in assay [2] is T1, PP1 (Homo sapiens, UniProt P62136). The experiment in a line: [32P]-phosphohistone dephosphorylation assay, PP1. It is filed as biochemical.
T1 sequence (P62136 whole entry): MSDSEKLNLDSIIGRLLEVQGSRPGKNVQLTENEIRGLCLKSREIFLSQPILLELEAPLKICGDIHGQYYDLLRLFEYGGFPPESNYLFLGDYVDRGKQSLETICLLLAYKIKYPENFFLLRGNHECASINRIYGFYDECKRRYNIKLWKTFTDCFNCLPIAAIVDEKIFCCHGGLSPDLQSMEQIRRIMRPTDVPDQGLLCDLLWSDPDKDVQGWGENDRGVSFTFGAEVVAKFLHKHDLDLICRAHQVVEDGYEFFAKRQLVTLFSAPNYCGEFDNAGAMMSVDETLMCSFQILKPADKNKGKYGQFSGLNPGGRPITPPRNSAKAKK
For assay [3], the target named is T2, PP2A (Homo sapiens, UniProt P67775). The experiment in a line: [32P]-phosphohistone dephosphorylation assay, PP2A. It is filed as biochemical.
T2 sequence (P67775 whole entry): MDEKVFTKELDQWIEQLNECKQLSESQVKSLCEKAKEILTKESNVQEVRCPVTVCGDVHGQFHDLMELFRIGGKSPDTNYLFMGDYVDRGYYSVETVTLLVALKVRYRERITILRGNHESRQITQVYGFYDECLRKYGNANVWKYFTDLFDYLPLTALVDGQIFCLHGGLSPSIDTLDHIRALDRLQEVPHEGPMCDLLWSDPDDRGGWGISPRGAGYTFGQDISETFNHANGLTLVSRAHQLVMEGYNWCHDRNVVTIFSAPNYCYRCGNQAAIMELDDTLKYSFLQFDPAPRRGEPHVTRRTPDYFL
The next assay deals with PP5 (Homo sapiens, UniProt P53041). The experiment in a line: [32P]-phosphohistone dephosphorylation assay, PP5. It is filed as biochemical.
PP5, sequence (P53041 whole entry): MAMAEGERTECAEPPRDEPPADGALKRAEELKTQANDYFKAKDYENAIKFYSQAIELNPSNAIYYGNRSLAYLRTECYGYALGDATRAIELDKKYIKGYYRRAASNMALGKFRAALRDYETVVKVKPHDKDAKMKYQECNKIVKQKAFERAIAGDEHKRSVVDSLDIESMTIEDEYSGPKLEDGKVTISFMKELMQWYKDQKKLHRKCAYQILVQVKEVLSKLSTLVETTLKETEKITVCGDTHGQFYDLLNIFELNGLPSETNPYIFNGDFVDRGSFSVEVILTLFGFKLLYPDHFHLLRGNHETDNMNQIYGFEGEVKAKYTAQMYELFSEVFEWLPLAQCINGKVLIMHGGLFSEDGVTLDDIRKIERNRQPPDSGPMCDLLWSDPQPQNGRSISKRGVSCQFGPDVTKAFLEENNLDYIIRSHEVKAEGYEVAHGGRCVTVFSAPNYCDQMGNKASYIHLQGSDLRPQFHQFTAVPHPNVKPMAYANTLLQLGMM
For the next assay, the target named is PP4 (Homo sapiens, UniProt P60510). Description: DiFMUP dephosphorylation assay, PP4. It is filed as biochemical.
PP4, sequence (P60510 whole entry): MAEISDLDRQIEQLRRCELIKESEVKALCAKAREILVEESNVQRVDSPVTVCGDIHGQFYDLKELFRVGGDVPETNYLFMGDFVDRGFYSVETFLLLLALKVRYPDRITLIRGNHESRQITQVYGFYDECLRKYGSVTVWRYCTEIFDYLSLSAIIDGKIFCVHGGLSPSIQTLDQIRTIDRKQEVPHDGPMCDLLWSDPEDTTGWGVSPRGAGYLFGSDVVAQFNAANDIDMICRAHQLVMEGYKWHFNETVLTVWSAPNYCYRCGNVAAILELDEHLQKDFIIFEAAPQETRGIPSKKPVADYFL
Another assay concerns the target PP6 (Homo sapiens, UniProt O00743). The experiment in a line: DiFMUP dephosphorylation assay, PP6. It is filed as biochemical.
The target of another assay is PP2B (Homo sapiens, UniProt Q08209). Description: DiFMUP dephosphorylation assay, PP2B. It is filed as biochemical.
PP2B, sequence (P63098 2-170, other chains not shown): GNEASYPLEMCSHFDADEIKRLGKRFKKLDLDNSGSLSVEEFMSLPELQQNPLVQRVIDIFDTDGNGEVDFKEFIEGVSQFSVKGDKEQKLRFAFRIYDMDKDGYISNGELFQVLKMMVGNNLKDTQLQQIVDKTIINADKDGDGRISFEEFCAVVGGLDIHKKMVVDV
Assay [4] relates to SHP2. The experiment in a line: Tyrosine phosphatase inhibition, SHP2. Particulars: IC50 SHP2 / IC50 PP1. It is filed as biochemical.
Assay [5] has as its system SHP1. Description: Tyrosine phosphatase inhibition, SHP1. It is filed as biochemical. Particulars: IC50 SHP1 / IC50 PP1.
Assay [6] deals with Lyp. Description: Tyrosine phosphatase inhibition, Lyp. Particulars: IC50 Lyp / IC50 PP1. It is filed as biochemical.
In assay [7] the test system is PTP1B. The experiment in a line: Tyrosine phosphatase inhibition, PTP1B. Particulars: IC50 PTP1B / IC50 PP1. It is filed as biochemical.
Assay [8] deals with PTPα. The experiment in a line: Tyrosine phosphatase inhibition, PTPα. Particulars: IC50 PTPα / IC50 PP1. It is filed as biochemical.
For assay [9], the system named is HePTP. Description: Tyrosine phosphatase inhibition, HePTP. It is filed as biochemical. Particulars: IC50 HePTP / IC50 PP1.
Assay [10] relates to CD45. Description: Tyrosine phosphatase inhibition, CD45. It is filed as biochemical. The note with it: IC50 CD45 / IC50 PP1.
Assay [11] has as its system VHR. Description: Tyrosine phosphatase inhibition, VHR. It is filed as biochemical. Particulars: IC50 VHR / IC50 PP1.
Assay [12] concerns CDC14A. The experiment in a line: Tyrosine phosphatase inhibition, CDC14A. The note with it: IC50 CDC14A / IC50 PP1. It is filed as biochemical.
A further assay concerns PPP family members. The experiment in a line: In vitro dephosphorylation assays across PPP family members. It is filed as biochemical.
In assay [13] the target is T1, PP1. Description: Lineweaver-Burk kinetic analysis, PP1. Particulars: WT PP1; indicative of irreversible enzyme inhibition; Figure S6. It is filed as biochemical.
The target in another assay is PP1 (Cys127) (Homo sapiens, UniProt P62136). The experiment in a line: ESI mass spectrometry of covalent PP1:TTN adduct, time-course. It is filed as binding. The note with it: ESI-MS time-course analysis.
PP1 (Cys127), sequence (P62136 7-300): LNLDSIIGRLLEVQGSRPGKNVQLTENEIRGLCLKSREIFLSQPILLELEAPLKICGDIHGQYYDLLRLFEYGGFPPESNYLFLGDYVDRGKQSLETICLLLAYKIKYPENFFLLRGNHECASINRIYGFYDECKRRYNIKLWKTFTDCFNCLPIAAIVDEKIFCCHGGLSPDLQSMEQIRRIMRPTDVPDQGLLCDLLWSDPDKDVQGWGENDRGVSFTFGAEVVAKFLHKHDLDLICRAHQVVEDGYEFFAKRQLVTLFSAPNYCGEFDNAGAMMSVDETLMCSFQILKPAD
Assay [14] concerns SHP2. Particulars: tyrosine phosphatase; cited from earlier work.
Assay [15] has as its system SHP1. The note with it: tyrosine phosphatase; cited from earlier work.
Assay [16] deals with Lyp. Particulars: tyrosine phosphatase; cited from earlier work.
For assay [17], the system named is PTP1B. The note with it: tyrosine phosphatase; cited from earlier work.
Assay [18] relates to PTPα. The note with it: tyrosine phosphatase; cited from earlier work.
Assay [19] relates to HePTP. Particulars: tyrosine phosphatase; cited from earlier work.
Assay [20] deals with CD45. Particulars: tyrosine phosphatase; cited from earlier work.
Assay [21] deals with VHR. Particulars: tyrosine phosphatase; cited from earlier work.
The subject of assay [22] is CDC14A. Particulars: tyrosine phosphatase; cited from earlier work.
In assay [23] the target is T2, PP2A. Particulars: cited from earlier work.

PP1 Cys127Ser mutant (C127SPP1), sequence (P62136 whole entry C127S): as the sequence (P62136 whole entry) above, with C127S counted along it
PP6, sequence (O00743 whole entry): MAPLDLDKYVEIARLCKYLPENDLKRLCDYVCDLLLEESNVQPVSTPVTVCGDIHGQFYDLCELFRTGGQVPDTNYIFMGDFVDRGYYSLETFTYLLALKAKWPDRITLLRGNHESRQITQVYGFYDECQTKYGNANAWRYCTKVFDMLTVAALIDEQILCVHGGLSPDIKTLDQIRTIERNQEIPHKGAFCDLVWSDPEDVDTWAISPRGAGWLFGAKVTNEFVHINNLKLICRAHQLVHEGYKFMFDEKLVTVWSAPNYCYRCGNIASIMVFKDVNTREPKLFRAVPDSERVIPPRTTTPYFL

As to `C=C1C(=O)N[C@H](C)C(=O)N[C@@H](CC(C)C)C(=O)N[C@@H](C(=O)O)[C@H](C)C(=O)N[C@@H](CCCNC(=N)N)C(=O)N[C@@H](/C=C/C(C)=C/[C@H](C)[C@H](Cc2ccccc2)OC)[C@H](C)C(=O)N[C@@H](C(=O)O)CCC(=O)N1C` [Microcystin-LR] (R[Adda][d(γGlu)][NMeDha][dA]L[dAsp(3S-Me)]-OH; lactam N-7), in [1], the “Change of IC50 for C127SPP1 compared to WT PP1” value was “no difference”.

For `CO[C@H]([C@H](O)CC(=O)[C@@H](C)[C@@H](O)CC[C@@H](C)[C@@H]1O[C@]2(CC[C@@H](C)[C@H](CC[C@H](C)C(C)=O)O2)CC[C@@H]1C)[C@H](OC(=O)C[C@@H](O)C1=C(C)C(=O)OC1=O)C(C)C` [TTM, tautomycin], the “Inhibition of PP1, PP2A, PP4 and PP5 compared” value in the assay with PP1, PP2A, PP4 and PP5 is “to a similar extent”.

In the case of `C=C/C(=C/C(=O)C[C@H](C)C[C@@H](C)CC[C@H](O)[C@H](C)C(=O)C[C@@H](O)[C@H](C)[C@@H](C)OC(=O)C[C@@H](O)C1=C(C)C(=O)OC1=O)CC` [TTN, Tautomycetin], the IC50 against PP1 [2] is 38 ± 9 pM; on PP2A [3], 0.0053 ± 0.00026 µM; against PP5 it was 0.0119 ± 5e-05 µM; against PP4, 0.0444 ± 0.0042 µM; on PP6, 0.101 ± 0.007 µM; against PP2B, 17.5 ± 3.2 µM. Also, the IC50 is 2.9 ± 0.2 µM in the assay on SHP2 [14]; 14.6 ± 0.1 µM in the assay with SHP1 [15]; 20 ± 2 µM with Lyp [16]; 41.2 ± 4.4 µM in the assay with PTP1B [17]; more than 50 µM with PTPα [18]; more than 50 µM in the assay on HePTP [19]. Moreover, the IC50 with CD45 [20], with VHR [21] and in the assay with CDC14A [22] was more than 50 µM each time. Further, the “Fold change (relative to PP1)” value on PP2A [3] (IC50 PP2A / IC50 PP1, [32P]-phosphohistone) is 139 ^b fold; on PP5 (IC50 PP5 / IC50 PP1, [32P]-phosphohistone), 313 ^b fold; at PP4 (IC50 PP4 / IC50 PP1), 1168 fold; at PP6 (IC50 PP6 / IC50 PP1), 2657 fold; on PP2B (IC50 PP2B / IC50 PP1) it was >10^5 fold; with SHP2 [4] it was >10^4 fold. Moreover, the “Fold change (relative to PP1)” value in the assay on SHP1 [5], in the assay with Lyp [6], with PTP1B [7], in the assay on PTPα [8], with HePTP [9] and with CD45 [10] was >10^5 fold each time. Moreover, the “Fold change (relative to PP1)” value with VHR [11] and in the assay with CDC14A [12] was >10^5 fold throughout. The “Selectivity (potency) for PP1 versus any other PPP tested” value in the assay with PPP family members is > 100 fold and 100 fold. The “Fold higher IC50 than for PP1, the other PPPs tested” value in the assay on PPP family members (PPPs other than PP2A and PP5) is on record as > 10^3 fold. Besides, in [1], the “Change of IC50 for C127SPP1 compared to WT PP1” value is listed as approximately 10 fold. The “Mode of inhibition (Lineweaver-Burk kinetic analysis)” value in assay [1] (C127SPP1, Figure S6) is recorded as “competitive inhibition”; on PP1 [13], “noncompetitive inhibition”. In addition, the “Time of covalent adduct formation with PP1” value on PP1 (Cys127) is reported as “less than 10 min”.

For the molecule `C[C@@](O)(/C=C/[C@H]1CC=CC(=O)O1)[C@@H](C[C@@H](O)\C=C/C=C\C=C\CO)OP(=O)(O)O` [fostriecin], the “Inhibition of PP2A compared with PP4” value on PP2A [23] is “nearly the same extent”.
